In PubChem BioAssay (NCI):
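Five compound concentrations were applied to cells in 96-well plates for 48 hours; endpoints were derived by simple linear interpolation of the resulting dose-response curve. The concentration for full growth arrest is given as TGI.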

Columns and labels:
Experiment in all cases: DTP human tumour cell line panel, 48 h
OVCAR-4 ovarian = test system: OVCAR-4 ovarian
NCI/ADR-RES ovarian = test system: NCI/ADR-RES ovarian
SK-MEL-28 melanoma = test system: SK-MEL-28 melanoma
HCT-116 colon = test system: HCT-116 colon
SF-295 CNS = test system: SF-295 CNS
OVCAR-8 ovarian = test system: OVCAR-8 ovarian
KM12 colon = test system: KM12 colon
IGROV1 ovarian = test system: IGROV1 ovarian
PC-3 prostate = test system: PC-3 prostate
HCT-15 colon = test system: HCT-15 colon
NCI-H460 lung = test system: NCI-H460 lung
SW-620 colon = test system: SW-620 colon
LOX IMVI melanoma = test system: LOX IMVI melanoma
RXF 393 renal = test system: RXF 393 renal
MDA-MB-435 = test system: MDA-MB-435
HOP-62 NSCLC = test system: HOP-62 NSCLC
DU-145 prostate = test system: DU-145 prostate
SK-MEL-5 melanoma = test system: SK-MEL-5 melanoma
MALME-3M melanoma = test system: MALME-3M melanoma
EKVX NSCLC = test system: EKVX NSCLC

Measured: TGI

COC(CC1(/C=C/O[Si](C(C)C)(C(C)C)C(C)C)C(=O)N(COCC[Si](C)(C)C)c2ccccc21)OC (stereo not drawn)
60 µM: SK-MEL-28 melanoma
59.9 µM: IGROV1 ovarian
71.6 µM: HCT-116 colon
52.9 µM: LOX IMVI melanoma
29.5 µM: RXF 393 renal
60.9 µM: MDA-MB-435
22.5 µM: SF-295 CNS
85.2 µM: PC-3 prostate
not listed: MALME-3M melanoma | EKVX NSCLC
> 100 µM: all other assays above

O=C(CC(C(=O)c1cccs1)c1cccs1)c1ccccc1Cl (stereo not drawn)
not listed: RXF 393 renal
> 100 µM: all other assays above

CCCCc1ccc(-n2sc3ncc([N+](=O)[O-])cc3c2=O)cc1
34.4 µM: NCI/ADR-RES ovarian
21.7 µM: MALME-3M melanoma
50.7 µM: SK-MEL-28 melanoma
35.9 µM: SW-620 colon
57.9 µM: DU-145 prostate
28.4 µM: HCT-15 colon
27 µM: SF-295 CNS
61 µM: OVCAR-8 ovarian
18.7 µM: PC-3 prostate
21 µM: HCT-116 colon
25.4 µM: KM12 colon
29.8 µM: EKVX NSCLC
52.3 µM: MDA-MB-435
36.7 µM: HOP-62 NSCLC
26.1 µM: LOX IMVI melanoma
28.1 µM: IGROV1 ovarian
25.3 µM: NCI-H460 lung
27.7 µM: SK-MEL-5 melanoma
35.2 µM: OVCAR-4 ovarian

COC(=O)c1ccc(NCc2c(O)ccc(O)c2Br)cc1Cl
44.2 µM: OVCAR-4 ovarian
27.3 µM: LOX IMVI melanoma
31 µM: KM12 colon
44 µM: PC-3 prostate
35.9 µM: HCT-15 colon
30 µM: OVCAR-8 ovarian
28.7 µM: IGROV1 ovarian
35 µM: SF-295 CNS
34.6 µM: SK-MEL-5 melanoma
30.7 µM: SK-MEL-28 melanoma
28.5 µM: EKVX NSCLC
30.4 µM: DU-145 prostate
26.5 µM: MDA-MB-435
44.9 µM: NCI/ADR-RES ovarian
41.9 µM: NCI-H460 lung
33.3 µM: HCT-116 colon
25 µM: SW-620 colon
33.2 µM: MALME-3M melanoma

CCOC(=O)C1C(c2ccc(O)c(OC)c2)c2c([nH][nH]c2=O)CC1(C)O (stereo not drawn)
not listed: NCI-H460 lung | RXF 393 renal
> 100 µM: all other assays above

CC(=O)Nc1ccc(-c2nc3ccccc3s2)cc1C
55.6 µM: DU-145 prostate
not listed: MALME-3M melanoma
> 100 µM: all other assays above

COC1(OC)N=C(N)C2(C#N)C3(C(=O)N(C(C)C)N=C3C)C12C#N (stereo not drawn)
not listed: LOX IMVI melanoma | SK-MEL-5 melanoma
> 100 µM: all other assays above

CC1CCCCN1CC(=O)c1ccc2c(c1)Sc1ccccc1O2 (stereo not drawn)
42.4 µM: SW-620 colon
26.8 µM: MALME-3M melanoma
30.3 µM: KM12 colon
29.7 µM: NCI-H460 lung
29.8 µM: MDA-MB-435
38.7 µM: LOX IMVI melanoma
35.5 µM: NCI/ADR-RES ovarian
33.1 µM: SK-MEL-28 melanoma
45.2 µM: HCT-15 colon
28.7 µM: EKVX NSCLC
26.1 µM: PC-3 prostate
33 µM: SF-295 CNS
28.6 µM: OVCAR-4 ovarian
30.8 µM: OVCAR-8 ovarian
30.7 µM: HCT-116 colon | HOP-62 NSCLC
67.8 µM: DU-145 prostate
19.9 µM: IGROV1 ovarian
31.1 µM: RXF 393 renal

COC(=O)C1(C(=O)OC)N=C(C)OC1c1ccccn1 (stereo not drawn)
not listed: MALME-3M melanoma
> 100 µM: all other assays above

CCOC(=O)/C(N=Nc1ccc(-n2c(C)nc3ccc(Br)cc3c2=O)cc1)=C(/C)O
31.9 µM: SK-MEL-5 melanoma
not listed: OVCAR-4 ovarian | RXF 393 renal | MALME-3M melanoma
> 100 µM: all other assays above

N#CCCN(CCC#N)c1ccc(C(N=Nc2ccccc2)=Nc2ccc(Cl)cc2)cc1
not listed: LOX IMVI melanoma | MALME-3M melanoma
> 100 µM: all other assays above

COC(=O)c1c2c(cc3c1CC1(C3)Cc3cc4c(c(C(C)=O)c3C1)CCC4)C=CC2 (stereo not drawn)
not listed: SW-620 colon | LOX IMVI melanoma | RXF 393 renal | MALME-3M melanoma
> 31.6 µM: all other assays above

O=[N+]1ON=C(c2ccccc2)C1=C1C(c2c(-c3ccccc3)no[n+]2[O-])=NON1[O-]
55.1 µM: HOP-62 NSCLC
11.3 µM: PC-3 prostate
16.2 µM: HCT-116 colon
68.7 µM: NCI-H460 lung
9.79 µM: OVCAR-4 ovarian
8.67 µM: LOX IMVI melanoma
51.3 µM: MALME-3M melanoma
6.56 µM: MDA-MB-435
10.1 µM: RXF 393 renal
not listed: HCT-15 colon
> 100 µM: all other assays above

COC(=O)[C@@]1(Cc2ccc(O)cc2)C[C@@H]2Cc3ccccc3N2N1
not listed: NCI-H460 lung | RXF 393 renal
> 100 µM: all other assays above

CCOP(=O)(Nc1ccccc1P(=O)(OCC)OCC)OCC
not listed: LOX IMVI melanoma
> 100 µM: all other assays above

c1cc2nnc1SCCCSc1ccc(nn1)SCCCSc1ccc(nn1)SCCCS2
not listed: EKVX NSCLC
> 100 µM: all other assays above

O=c1oc2ccccc2c(O)c1/C=N/C(=S)NCc1ccccc1
not listed: RXF 393 renal | MALME-3M melanoma
> 100 µM: all other assays above

Cc1c(/C=N/NC(=S)Nc2ccccc2)c(=O)n(-c2ccccc2)n1C
not listed: MALME-3M melanoma
> 100 µM: all other assays above

S=C(N/N=C/c1ccccn1)Nc1ccc(Cl)cc1
> 91.7 µM: SF-295 CNS
25.6 µM: IGROV1 ovarian
> 42.8 µM: OVCAR-8 ovarian
> 35.3 µM: LOX IMVI melanoma
> 88.5 µM: HCT-116 colon
15.5 µM: SK-MEL-5 melanoma
> 29 µM: MALME-3M melanoma
17.4 µM: HOP-62 NSCLC
not listed: NCI/ADR-RES ovarian | RXF 393 renal
> 100 µM: all other assays above

O=C(OC[C@H]1C[C@H]2C(=O)CCC[C@H]2O1)c1ccccc1
not listed: RXF 393 renal | MALME-3M melanoma
> 100 µM: all other assays above

COC(=O)C(Cc1ccccc1)NP(=O)(O)OCC1OC(n2cc(I)c(=O)[nH]c2=O)CC1O (stereo not drawn)
not listed: RXF 393 renal
> 100 µM: all other assays above

C[n+]1c2ccccc2n2c3ccccc3c(NCCc3ccccn3)c(C#N)c21
5.93 µM: OVCAR-4 ovarian
19.5 µM: EKVX NSCLC
4 µM: MDA-MB-435
3.41 µM: LOX IMVI melanoma
17.4 µM: HCT-15 colon
3.24 µM: SW-620 colon
29 µM: KM12 colon
> 60 µM: NCI/ADR-RES ovarian
15.9 µM: SF-295 CNS
23.9 µM: PC-3 prostate
11.8 µM: HCT-116 colon | HOP-62 NSCLC
12 µM: MALME-3M melanoma
5.51 µM: SK-MEL-28 melanoma
3.61 µM: NCI-H460 lung
7.01 µM: DU-145 prostate
4.62 µM: RXF 393 renal

Cc1[nH]n(C(=N)N)c(=O)c1CCO
3.17 µM: OVCAR-8 ovarian
8.93 µM: NCI/ADR-RES ovarian
not listed: KM12 colon | EKVX NSCLC
> 100 µM: all other assays above

O=c1cc(N2CCCC2)[nH]c(=O)n1-c1ccc(F)cc1
not listed: SK-MEL-5 melanoma
> 100 µM: all other assays above

Cc1nc2c(cc1C(=O)N/N=C/c1ccc([N+](=O)[O-])cc1)c(=O)n(C)c(=O)n2C
35.8 µM: HOP-62 NSCLC
65 µM: RXF 393 renal
not listed: LOX IMVI melanoma
> 100 µM: all other assays above
